Laboratory results taken from patent US8937084B2, “Nitrogen containing morphinan derivatives and the use thereof” (Purdue Pharma L.P., priority 2012, dated 2015).

Molecular target: κ opioid receptor (Homo sapiens (Human), UniProt P41145)
Assay: κ-opioid receptor [35S]GTPγS functional assay, U-2 OS cells
Assay type: biochemical
Settings: for EC50: GTPγS; for Emax: relative to U69,593
Description: κ-Opioid Receptor Functional Assay Procedures: Functional [^35S]GTPγS binding assays were conducted as follows. κ opioid receptor membrane solution was prepared by sequentially adding final concentrations of 0.026 μg/μl κ membrane protein (in-house), 10 μg/mL saponin, 3 μM GDP and 0.20 nM [^35S]GTPγS to binding buffer (100 mM NaCl, 10 mM MgCl2, 20 mM HEPES, pH 7.4) on ice. The prepared membrane solution (190 μl/well) was transferred to 96-shallow well polypropylene plates containing 10 μl of 20× concentrated stock solutions of agonist prepared in DMSO. Plates were incubated for 30 min at a temperature of about 25° C. with shaking. Reactions were terminated by rapid filtration onto 96-well Unifilter GF/B filter plates (Perkin Elmer, Shelton, Conn.) using a 96-well tissue harvester (Packard) and followed by three filtration washes with 200 μl ice-cold binding buffer (10 mM NaH2PO4, 10 mM Na2HPO4, pH 7.4). Filter plates were subsequently dried at 50° C. for 2-3 hours. Fifty μl/well scintillation cocktail (Perkin Elmer, Shelton, Conn.) was added and plates were counted in a Packard Top-Count for 1 min/well.
κ-Oploid Receptor Functional Data: κ GTP EC50 is the concentration of a compound providing 50% of the maximal response for the compound at a K receptor.
κ GTP Emax (%) is the maximal effect elicited by a compound relative to the effect elicited by U69,593.
The following TABLE 3 provides results on the activity response of certain Compounds of the Invention at the μ- and κ-opioid receptors determined as described above using U-2 OS cells.

Compound	EC50	Emax
NC(=O)CN1C[C@H]2[C@H]3Cc4ccc(O)cc4[C@@]2(CCN3CC2CC2)CC1=O [Compound 4, 2-((4aS,5R,10bS)— 13-(cyclopropylmethyl)-9-hydroxy-2-oxo-4,4-a,5,6-tetrahydro-1H-5,10b-(epiminoethano)benzo[f]isoquinolin-3(2H)-yl)acetamide]	1.65 ± 0.054 nM	104 ± 2.6%
O=C1C[C@]23CCN(CC4CC4)[C@H](Cc4ccc(O)cc42)[C@@H]3CN1 [Compound 7, (4aS,5R,10bS)-13-(cyclopropylmethyl)-9-hydroxy-4,4-a,5,6-tetrahydro-1H-5,10b-(epiminoethano)benzo[f]isoquinolin-2(3H)-one]	0.21 ± 0.014 nM	106 ± 1.53%
